27 molecules from patent US10844013B2, “Phenyl amino piperidine mTORC inhibitors and uses thereof” (Navitor Pharmaceuticals, Inc., priority 2016, dated 2020) can be followed below.

The structures appear in SMILES notation. Where two headings read alike, the source gives them in different places.

Assay [1] has as its system pS6K1 (p-p70 S6 Kinase (Thr389)) in MCF-7 cells. Description: AlphaLISA Ultra pS6K1 assay. In kind it is cell-based. Conditions: 2 hours compound incubation. Summed up:
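MCF-7 cells seeded 20–24 h, medium refreshed 2 h, then treated 2 h with compound (0.5% DMSO final). Lysates probed for Thr389-phosphorylated p70 S6K by AlphaLISA Ultra, 2 h acceptor then 2 h donor bead incubation, read on a multimode reader.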

Assay [2] has as its system pAKT (p-Akt 1/2/3 (Ser473)) in MCF-7 cells. Description: AlphaLISA Ultra pAKT assay. In kind it is cell-based. Put shortly:
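MCF-7 cells seeded 20-24 h, medium refreshed for 2 h, then treated with compounds for 2 h at 0.5% final DMSO. Lysates frozen at −80 °C, then pAKT detected by AlphaLISA with acceptor and donor beads, 2 h each.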

[3] abbreviates: Homo sapiens, MCF7, 2 hours compound incubation.

Take `Cc1cc(C)c(C(=O)N2CCN(c3ccccn3)[C@H](CO)C2)cc1NC1CCN(c2ccccc2OC(F)(F)F)CC1` [I-183, (S)-(2,4-dimethyl-5-(1-(2-(trifluoromethoxy)phenyl)piperidin-4-ylamino)phenyl)(3-(hydroxymethyl)-4-(pyridin-2-yl)piperazin-1-yl)methanone]: the IC50 is 10 to 1000 nM in assay [1] (Homo sapiens, MCF7, 2 h) and over 10 µM in assay [2] (setting [3]).
On the same counts, the results for `Cc1cc(C)c(C(=O)N2CCN(c3ccccn3)[C@H](CO)C2)c(C)c1NC1CCN(c2ccccn2)CC1` [I-156, [(2S)-1-(pyridin-2-yl)-4-(2,4,6-trimethyl-3-{[1-(pyridin-2-yl)piperidin-4-yl]amino}benzoyl)piperazin-2-yl]MeOH] are 10 to 1000 nM and over 10 µM.
On the same counts, the results for `Cc1cc(C)c(C(=O)N2CCN(c3ccccc3S(C)(=N)=O)CC2)nc1NC1CCN(c2ccccc2C#N)CC1` (single isomer, unassigned) [I-126, 2-(4-(3,5-Dimethyl-6-(4-(2-(S-methylsulfonimidoyl)phenyl)piperazine-1-carbonyl)pyridin-2-ylamino)piperidin-1-yl)benzonitrile] are 10 to 1000 nM and over 10 µM.
On the same counts, the results for `Cc1cc(C)c(C(=O)N2CCN(c3ccccc3S(N)(=O)=O)CC2)cc1NC1C2CN(c3ccccc3C#N)CC21` (stereo not drawn) [I-132, 2-(4-(5-(3-(2-Cyanophenyl)-3-azabicyclo[3.1.0]hexan-6-ylamino)-2,4-dimethylbenzoyl)piperazin-1-yl)benzenesulfonamide] are 1000 to 3000 nM and over 10 µM.
Take `Cc1cccc(N2CCN(C(=O)c3cc(NC4CCN(c5ccccc5Cl)CC4)c(C)cc3C)CC2)n1` [I-35, (5-(1-(2-chlorophenyl)piperidin-4-ylamino)-2,4-dimethylphenyl) (4-(6-methylpyridin-2-yl)piperazin-1-yl) methanone]: the IC50 in assay [1] (Homo sapiens, MCF7, 2 h) is 3000 to 5000 nM; in assay [2] (setting [3]), over 10 µM.
On the same counts, the results for `Cc1cc(C)c(N(C)C2CCN(c3ccccc3C#N)CC2)cc1C(=O)N1CCN(c2ccccc2C#N)CC1` [I-68, 2-[4-({5-[4-(2-cyanophenyl)piperazine-1-carbonyl]-2,4-dimethylphenyl}(methyl)amino)piperidin-1-yl]benzonitrile] are 10 to 1000 nM and over 10 µM.
On the same counts, the results for `Cc1cc(C)c(C(=O)N2CCN(c3ccccc3C#N)CC2)cc1NC1CCN(c2cccc(Cl)c2)CC1` [I-17, 2-(4-(5-(1-(3-Chlorophenyl)piperidin-4-ylamino)-2,4-dimethylbenzoyl)piperazin-1-yl)benzonitrile] are 1000 to 3000 nM and over 10 µM.
Take `Cc1cc(C)c(C(=O)N2CCN(c3ccccc3)[C@H](CO)C2)c(C)c1NC1CCN(c2cccnn2)CC1` [I-158, [(2S)-1-phenyl-4-(2,4,6-trimethyl-3-{[1-(pyridazin-3-yl)piperidin-4-yl]amino}benzoyl)piperazin-2-yl]MeOH]: the IC50 is 10 to 1000 nM in assay [1] (Homo sapiens, MCF7, 2 h) and over 10 µM in assay [2] (setting [3]).
On the same counts, the results for `Cc1cc(C)c(C(=O)N2CCN(c3ccccc3C(N)=O)CC2)cc1NC1CCN(c2ccccc2C#N)CC1` [I-29] are 10 to 1000 nM and over 10 µM.
On the same counts, the results for `Cc1cc(C)c(C(=O)NC2CCN(c3ccccc3C#N)CC2)cc1NC1CCN(c2ccccc2C#N)CC1` [I-97, N-(1-(2-Cyanophenyl)piperidin-4-yl)-5-(1-(2-cyanophenyl)piperidin-4-ylamino)-2,4-dimethylbenzamide] are over 10000 nM and over 10 µM.
For `Cc1cc(F)c(NC2CCN(c3ccccc3C#N)CC2)cc1C(=O)N1CCN(c2ccccc2S(N)(=O)=O)CC1` [I-90, 2-(4-(5-(1-(2-cyanophenyl)piperidin-4-ylamino)-4-fluoro-2-methylbenzoyl)piperazin-1-y)benzenesulfonamide], in that order: 3000 to 5000 nM and over 10 µM.
As to `Cc1cc(C)c(C(=O)N2CCN(c3ccc(F)cn3)[C@H](CO)C2)cc1NC1CCN(c2ccccc2C#N)CC1` [I-117, (S)-2-(4-(5-(4-(5-fluoropyridin-2-yl)-3-(hydroxymethyl)piperazine-1-carbonyl)-2,4-dimethylphenylamino)piperidin-1-yl)benzonitrile], the IC50 in assay [1] (Homo sapiens, MCF7, 2 h) was 10 to 1000 nM; in assay [2] (setting [3]), over 10 µM.
On the same counts, the results for `Cc1cc(C)c(C(=O)N2CCN(c3ccccc3)[C@H](C(N)=O)C2)c(C)c1NC1CCN(c2cccnn2)CC1` [I-164, (2S)-1-Phenyl-4-(2,4,6-trimethyl-3-{[1-(pyridazin-3-yl)piperidin-4-yl]amino}benzoyl)piperazine-2-carboxamide] are 10 to 1000 nM and over 10 µM.
For `Cc1cc(C)c(C(=O)N2CCN(c3ccccc3F)C(CO)C2)cc1NC1CCN(c2ccccc2C#N)CC1` (stereo not drawn) [I-74, 2-[4-({5-[4-(2-Fluorophenyl)-3-(hydroxymethyl)piperazine-1-carbonyl]-2,4-dimethylphenyl}amino)piperidin-1-yl]benzonitrile], in that order: 10 to 1000 nM and over 10 µM.
Regarding `Cc1cc(C)c(C(=O)N2CCN(c3ccccc3)C(C(N)=O)C2)cc1NC1CCN(c2ccccc2C#N)CC1` (stereo not drawn) [I-31, 4-(5-{[1-(2-cyanophenyl)piperidin-4-yl]amino}-2,4-dimethylbenzoyl)-1-phenylpiperazine-2-carboxamide], the IC50 was 10 to 1000 nM in assay [1] (Homo sapiens, MCF7, 2 h) and over 10 µM in assay [2] (setting [3]).
`CNC(=O)C1CN(C(=O)c2cc(NC3CCN(c4ccccc4C#N)CC3)c(C)cc2C)CCN1c1ccccc1` (stereo not drawn) [I-32, 4-(5-{[1-(2-cyanophenyl)piperidin-4-yl]amino}-2,4-dimethylbenzoyl)-N-methyl-1-phenylpiperazine-2-carboxamide]: the IC50 in assay [1] (Homo sapiens, MCF7, 2 h) was 1000 to 3000 nM; in assay [2] (setting [3]), over 10 µM.
On the same counts, the results for `Cc1cc(C)c(C(=O)N2CCN(c3ccccc3S(N)(=O)=O)CC2)cc1N[C@@H]1CCN(c2ccccc2C#N)C[C@H]1C` [I-170, 2-(4-(5-(((3R,4R)-1-(2-cyanophenyl)-3-methylpiperidin-4-yl)amino)-2,4-dimethylbenzoyl)piperazin-1-yl)benzenesulfonamide] are 10 to 1000 nM and over 10 µM.
For `Cc1cc(C)c(C(=O)N2CCN(C(C)C)[C@@H](CO)C2)cc1NC1CCN(c2ccccc2C#N)CC1` [I-114, (R)-2-(4-(5-(3-(Hydroxymethyl)-4-isopropylpiperazine-1-carbonyl)-2,4-dimethylphenylamino)piperidin-1-yl)benzonitrile], in that order: over 10000 nM and over 10 µM.
Turning to `Cc1cc(C)c(C(=O)N2CCN(c3ccccc3S(N)(=O)=O)CC2)cc1NC1CCN(c2ccccc2C#N)C1` (stereo not drawn) [I-131, 2-(4-(5-(1-(2-cyanophenyl)pyrrolidin-3-ylamino)-2,4-dimethylbenzoyl)piperazin-1-yl)benzenesulfonamide], the IC50 in assay [1] (Homo sapiens, MCF7, 2 h) is over 10000 nM; in assay [2] (setting [3]), over 10 µM.
For `Cc1cc(C)c(C(=O)N2CCN(c3ccccn3)[C@H](CO)C2)c(C)c1NC1CCN(c2ccc(F)cn2)CC1` [I-147, [(2S)-4-(3-{[1-(5-Fluoropyridin-2-yl)piperidin-4-yl]amino}-2,4,6-trimethylbenzoyl)-1-(pyridin-2-yl)piperazin-2-yl]methanol], in that order: 10 to 1000 nM and over 10 µM.
For `Cc1cc(C)c(C(=O)N2CCN(c3ccccn3)[C@H](CO)C2)cc1NC1CCN(c2ccccc2C#N)CC1` (single isomer, unassigned) [I-38, 2-[4-({5-[(3S or 3R)-3-(hydroxymethyl)-4-(pyridin-2-yl)piperazine-1-carbonyl]-2,4-dimethylphenyl}amino)piperidin-1-yl]benzonitrile], in that order: 3000 to 5000 nM and over 10 µM.
For `Cc1cc(C)c(C(=O)N2CCN(c3ccccc3S(C)(=N)=O)CC2)cc1NC1CCN(c2ccccc2C#N)CC1` (single isomer, unassigned) [I-50, 2-(4-{[5-(4-{2-[(R or S)-imino(methyl)oxo-λ^6-sulfanyl]phenyl}piperazine-1-carbonyl)-2,4-dimethylphenyl]amino}piperidin-1-yl)benzonitrile], the IC50 in assay [1] (read-out: pS6K1 in MCF7: IC50) is 1000 to 3000 nM; in assay [2] (2 hours compound incubation, read-out: pAKT in MCF7: IC50), over 10 µM.
With `Cc1ccc(C(=O)N2CCN(c3ccccc3)C(CO)C2)cc1NC1CCN(c2ccccc2C#N)CC1` (single isomer, unassigned) [I-84, 2-[4-({5-[(3R or S)-3-(hydroxymethyl)-4-phenylpiperazine-1-carbonyl]-2-methylphenyl}amino)piperidin-1-yl]benzonitrile], the IC50 in assay [1] (read-out: pS6K1 in MCF7: IC50) was 1000 to 3000 nM; in assay [2] (setting [3]), over 10 µM.
For the molecule `Cc1cc(C)c(C(=O)N2CCN(c3ncccc3[S@](C)(=N)=O)CC2)cc1NC1CCN(c2ccccc2C#N)CC1` (single isomer, unassigned) [I-93], the IC50 in assay [1] (Homo sapiens, MCF7, 2 h) was 1000 to 3000 nM; in assay [2] (setting [3]) it was over 10 µM.
For `Cc1cc(C)c(C(=O)N2CCN(c3ccccn3)CC2)cc1NC1CCN(c2ccccc2C#N)CC1` [I-55], in that order: 1000 to 3000 nM and over 10 µM.
For `Cc1cc(C)c(C(=O)N2CCN(c3ccccc3)[C@H](CO)C2)cc1NC1CCN(c2ccccc2C#N)CC1` (single isomer, unassigned) [I-40, 2-[4-({5-[3S or R-(hydroxymethyl)-4-phenylpiperazine-1-carbonyl]-2,4-dimethylphenyl}amino)piperidin-1-yl]benzonitrile], the IC50 in assay [1] (Homo sapiens, MCF7, 2 h) is 10 to 1000 nM; in assay [2] (setting [3]), over 10 µM.
For `Cc1cc(C)c(C(=O)N2CCN(c3ncccc3S(N)(=O)=O)CC2)c(C)c1NC1CCN(c2ncccc2Cl)CC1` [I-186, 2-(4-(3-(1-(3-chloropyridin-2-yl)piperidin-4-ylamino)-2,4,6-trimethylbenzoyl)piperazin-1-yl)pyridine-3-sulfonamide], in that order: 10 to 1000 nM and over 10 µM.
